The test system of test [1] is A549. Kind of test: Growth inhibition of human apoptosis-resistant A549 cells after 72 hrs by MTT assay. The format is functional, cell-based. The settings on record: A549, 72 h.
Test [2] is described as follows: Growth inhibition of human apoptosis-resistant U373 cells after 72 hrs by MTT assay. It is filed as functional, cell-based, U-373MG ATCC. Conditions: U373 MG.
Test [3] concerns PC-3. Briefly: Growth inhibition of human apoptosis-sensitive PC3 cells after 72 hrs by MTT assay. Conditions: PC-3, 72 h. The format is functional, cell-based.
Test [4] in a line: Growth inhibition of human apoptosis-resistant OE21 cells after 72 hrs by MTT assay. The settings on record: OE21, 72 h. It is filed as functional, cell-based.
Test [5] relates to SK-MEL-28. Kind of test: Growth inhibition of human apoptosis-resistant SK-MEL-28 cells after 72 hrs by MTT assay. It is filed as functional, cell-based. The settings on record: SK-MEL-28, 72 h.
In test [6] the test system is LoVo. Kind of test: Growth inhibition of human apoptosis-sensitive LoVo cells after 72 hrs by MTT assay. It is filed as functional, cell-based.
Test [7] relates to U-373MG ATCC. Briefly: Cytostatic effect against human apoptosis-resistant U373 cells assessed as inhibition of cell entry into mitosis at 3 uM after 72 hrs by computer-assisted phase contrast microscopy. It is filed as functional, cell-based.
The test system of test [8] is U-373MG ATCC. Briefly: Cytostatic effect against human apoptosis-resistant U373 cells at 7 uM assessed as induction of vacuolization after 72 hrs by computer-assisted phase contrast microscopy. The format is functional, cell-based.
For test [9], the system named is U-373MG ATCC. Kind of test: Cytostatic effect against human apoptosis-resistant U373 cells assessed as increase in mitosis duration at 16 uM after 72 hrs by computer-assisted phase contrast microscopy. The format is functional, cell-based.

The source made the active and inactive calls. The calls are words filed in the database; no cut-off is given here.

In the case of `CC(C)[C@@H]1CC=C[C@H]2[C@@H]3[C@](C)(O)[C@H](O)C[C@H](Br)[C@@]3(C)CC[C@]12CBr`, the IC50 worked out at 28 µM in test [1]; 25 µM in test [2]; 26 µM in test [3]; 25 µM in [4]; 29 µM in [5]; 26 µM in [6].
Turning to `CC(C)[C@@H]1CC=C[C@H]2[C@H]3[C@@](C)(C=CC(=O)[C@@]3(C)O)CC[C@]12CBr` [SPHAEROCOCCENOL A], the IC50 in test [1] was 3.7 µM; in test [2], 3.2 µM; in test [3] it was 3.7 µM; in [4], 3 µM; in test [5], 5.2 µM; in test [6] it was 2.8 µM. The inhibition entry in test [7] was “Active”.
In the case of `C=C1CC[C@@]2(C)[C@H](/C=C/CC[C@H]1C(C)C)[C@](C)(O)[C@H](O)C[C@@H]2Br`, the IC50 in test [1] stood at 64 µM; in [2], 60 µM; in test [3] it was 48 µM; in test [4], 33 µM; in [5], 62 µM; in [6] it was 24 µM.
`CC(C)[C@@H]1CC=C[C@H]2[C@H]3[C@](C)(CC[C@]12CBr)[C@@H](Br)CC[C@@]3(C)O` [BROMOSPHAEROL]: the IC50 was found to be 35 µM in [1]; 30 µM in test [2]; 30 µM in test [3]; 28 µM in [4]; 34 µM in [5]; 23 µM in test [6].
As to `CC(C)[C@@H]1C=C[C@H](OO)[C@H]2[C@@H]3[C@](C)(O)[C@H](O)C[C@H](Br)[C@@]3(C)CC[C@@]21CBr`, the IC50 came out at 40 µM in test [1]; 32 µM in test [2]; 30 µM in test [3]; 25 µM in test [4]; 31 µM in test [5]; 22 µM in test [6].
As to `C=C1CC[C@@H]2[C@H]([C@@H]3[C@H](C)CC[C@H]13)C2(C)C`, the IC50 in test [1] is 79 µM; in test [2] it was 71 µM; in test [3], 35 µM; in test [4] it was 83 µM; in test [5], > 100 µM; in [6] it was 63 µM.
`CC(C)[C@]1(O)C[C@H]2C[C@H]3[C@H]4[C@](C)(CC[C@@]31C2)[C@@H](Br)CC[C@@]4(C)O`: the IC50 was 63 µM in [1]; 75 µM in test [2]; 43 µM in test [3]; 64 µM in test [4]; > 100 µM in test [5]; 56 µM in [6].
Regarding `CC(C)[C@@H]1CC=C[C@H]2[C@H]3[C@](C)(CC[C@]12CBr)[C@@H](O)CC(=O)[C@@]3(C)O`, the half-maximal inhibitory concentration (IC50) in test [1] turned out to be 18 µM; in [2] it was 7.2 µM; in test [3], 8.1 µM; in [4] it was 8.4 µM; in test [5] it was 21 µM; in [6], 5.3 µM. Moreover, the inhibition result in test [8] is “Active”.
Regarding `CC(=O)[C@H]1[C@@H]2[C@H]3CC[C@@H](C(C)C)[C@]3(C)CC[C@]2(C)[C@@H](Br)C[C@@H]1O` [CORONONE], the IC50 in test [1] stood at 42 µM; in [2], 31 µM; in test [3], 30 µM; in test [4], 30 µM; in [5] it was 38 µM; in test [6], 28 µM.
Take `CC(C)[C@@H]1C=C[C@H](O)[C@H]2[C@H]3[C@](C)(CC[C@@]21CBr)[C@@H](Br)CC[C@@]3(C)O` [BROMOSPHAERODIOL]: the IC50 was 24 µM in test [1]; 22 µM in test [2]; 26 µM in test [3]; 15 µM in test [4]; 31 µM in test [5]; 20 µM in test [6].
Turning to `CC(C)[C@@H]1C=C[C@H](OO)[C@H]2[C@@H]3[C@](C)(O)[C@@H](O)C[C@H](Br)[C@@]3(C)CC[C@@]21CBr`, the IC50 turned out to be 26 µM in [1]; 22 µM in test [2]; 28 µM in [3]; 27 µM in test [4]; 28 µM in test [5]; 28 µM in test [6].
As to `CC(C)[C@@H]1CC[C@H](O)[C@H]2[C@H]3[C@](C)(CC[C@@]21CBr)[C@@H](Br)CC[C@@]3(C)O`, the IC50 in test [1] was found to be 28.6 µM; in [2], 25 µM; in test [3] it was 25 µM; in test [4] it was 20 µM; in test [5], 26 µM; in [6], 23 µM.
Take `CC(C)[C@@H]1C[C@@H]2C[C@@]13CC[C@]1(C)[C@@H](Br)CC[C@@](C)(O)[C@H]1[C@@H]3[C@H]2O` [BROMOTETRASPHAEROL]: the IC50 in test [1] was found to be 38 µM; in test [2], 34 µM; in [3], 30 µM; in [4], 33 µM; in test [5], 43 µM; in [6] it was 26 µM.
As for `CC(C)[C@@H]1CC[C@@H]2[C@@H](O)[C@H]3[C@](C)(CC[C@]21C)[C@@H](Br)CC[C@@]3(C)O` [NEODOLASTANE], the IC50 in test [1] came to 97 µM; in [2], 85 µM; in test [3], 74 µM; in test [4] it was 60 µM; in [5], 96 µM; in test [6] it was 64 µM.
Take `C=C1CC[C@H]2[C@@H](C(C)C)CC[C@@H]2/C=C/[C@](C)(O)CC[C@H]1OC(C)=O` [SPHAEROLLANE I]: the IC50 was 44 µM in test [1]; 20 µM in [2]; 34 µM in test [3]; 34 µM in [4]; 57 µM in [5]; 23 µM in test [6].
Turning to `CC(C)[C@@H]1CC=C[C@H]2[C@@H]3[C@](C)(O)[C@@H](O)C[C@H](Br)[C@@]3(C)CC[C@]12CBr`, the IC50 came out at 19 µM in test [1]; 16 µM in test [2]; 12 µM in [3]; 19 µM in test [4]; 22 µM in test [5]; 9 µM in test [6]. Besides, the inhibition entry in [9] is “Active”.

These data come from ChEMBL document CHEMBL1159099, “Structure and in vitro antitumor activity evaluation of brominated diterpenes from the red alga Sphaerococcus coronopifolius” (Bioorg Med Chem, 2010).
